Laboratory results: ChEMBL document CHEMBL6114984, “Discovery of 2,4-diaminopyrimidine derivatives as potent inhibitors of FAK capable of activating the Hippo pathway for the treatment of esophageal squamous cell carcinoma” (Eur J Med Chem, 2025)

How the values were obtained:
[1] = in vitro; conditions: rat, liver microsomes
Description: Metabolic stability in rat liver microsomes assessed as parent compound remaining measured after 60 min

[2] = in vitro; conditions: rat, liver microsomes; remark: listed apart in the source
Description: Metabolic stability in rat liver microsomes assessed as parent compound remaining measured after 30 min

[3] = in vitro; conditions: rat, liver microsomes; remark: listed apart in the source
Description: Metabolic stability in rat liver microsomes assessed as parent compound remaining measured after 5 min

[4] = in vitro; conditions: rat, liver microsomes; remark: listed apart in the source
Description: Metabolic stability in rat liver microsomes assessed as parent compound remaining measured after 15 min

[5] = Metabolic stability in rat liver assessed as intrinsic clearance
[6] = test system: Huh-7; assay: cells; conditions: Homo sapiens, Huh-7, 48 h
Description: Antiproliferative activity against human Huh-7 cells assessed as inhibition of cell proliferation incubated for 48 hrs by MTT assay

[7] = test system: NCI-N87; assay: cells; conditions: Homo sapiens, NCI-N87, 48 h
Description: Antiproliferative activity against human NCI-N87 cells assessed as inhibition of cell proliferation incubated for 48 hrs by MTT assay

[8] = test system: MDA-MB-231; assay: cells; conditions: Homo sapiens, MDA-MB-231, 48 h
Description: Antiproliferative activity against human MDA-MB-231 cells assessed as inhibition of cell proliferation incubated for 48 hrs by MTT assay

[9] = test system: ECa-109 cell line; assay: cells; conditions: Homo sapiens, ECa-109, 48 h
Description: Antiproliferative activity against human EC109 cells assessed as inhibition of cell proliferation incubated for 48 hrs by MTT assay

[10] = test system: KYSE-450; assay: cells; conditions: Homo sapiens, KYSE-450, 48 h
Description: Antiproliferative activity against human KYSE-450 cells assessed as inhibition of cell proliferation incubated for 48 hrs by MTT assay

[11] = test system: KYSE-30; assay: cells; conditions: Homo sapiens, KYSE-30, 48 h
Description: Antiproliferative activity against human KYSE-30 cells assessed as inhibition of cell proliferation incubated for 48 hrs by MTT assay

[12] = test system: HCT-116; assay: cells; conditions: Homo sapiens, HCT-116, 48 h
Description: Antiproliferative activity against human HCT-116 cells assessed as inhibition of cell proliferation incubated for 48 hrs by MTT assay

[13] = test system: DU-145; assay: cells; conditions: Homo sapiens, DU-145, 48 h
Description: Antiproliferative activity against human DU-145 cells assessed as inhibition of cell proliferation incubated for 48 hrs by MTT assay

[14] = test system: MGC-803; assay: cells; conditions: Homo sapiens, MGC-803, 48 h
Description: Antiproliferative activity against human MGC-803 cells assessed as inhibition of cell proliferation incubated for 48 hrs by MTT assay

[15] = test system: NCI-H1975; assay: cells; conditions: Homo sapiens, NCI-H1975, 48 h
Description: Antiproliferative activity against human NCI-H1975 cells assessed as inhibition of cell proliferation incubated for 48 hrs by MTT assay

[16] = test system: KYSE-150 cell line; assay: Antiproliferative activity against human KYSE-150 cell line assessed as inhibition of cell proliferation incubated for 48 hrs by MTT assay; format: functional, cell-based; conditions: KYSE-150, 48 h

remaining at 1 h [1] [%] | remaining at 0.5 h [2] [%] | remaining at 5 min [3] [%] | remaining at 0.25 h [4] [%] | CLint scaled [5] [L/h/kg] | IC50 [6] [µM] | IC50 [7] [µM] | IC50 [8] [µM] | IC50 [9] [µM] | IC50 [10] [µM] | IC50 [11] [µM] | IC50 [12] [µM] | IC50 [13] [µM] | IC50 [14] [µM] | IC50 [15] [µM] | SMILES | IC50 [16] [µM]
11.5 | 33.8 | 77.9 | 55.7 | 7.62 |  |  |  |  |  |  |  |  |  |  | O=C(O)Cc1ccccc1Nc1c(Cl)cccc1Cl [DICLOFENAC] | 
 |  |  |  |  | 0.51 | 2.12 | 2.12 | 3.27 | 3.44 | 1.03 | 1.52 | 0.72 | 1.28 | 1.82 | CNC(=O)c1ccccc1Nc1nc(Nc2ccc(N3CCOCC3)cc2OC)ncc1Cl | 1.82
